Experimental data published in patent publication US7968591B2, “1,3-disubstituted 4-methyl-1H-pyrrole-2-carboxamides and their use in medicaments” (Gruenenthal GmbH, priority 2006, dated 2011).

tested on: batrachotoxin (BTX) binding site of the sodium channel; experiment: Affinity for the batrachotoxin (BTX) binding site of the sodium channel; conditions: rat cerebrocortex synaptosomes, [3H]-Batrachotoxinin A20α benzoate 10 nM

Question: For `COc1ccc(-c2c(C)cn(Cc3ccc(F)cc3)c2C(=O)NCCc2cccs2)cc1` [Example 35, 1-(4-fluorobenzyl)-3-(4-methoxyphenyl)-4-methyl-1H-pyrrole-2-carboxylic acid (2-thiophen-2-ylethyl)-amide], which “BTX (Na+ channel) (% inhibition at 10 μM)” value is on record?
Answer: Its value is 48%.

Question: For `Cc1cn(Cc2ccc(C(F)(F)F)cc2)c(C(=O)NCCN2CCCC2)c1-c1ccco1` [Example 38, 3-furan-2-yl-4-methyl-1-(4-trifluoromethylbenzyl)-1H-pyrrole-2-carboxylic acid (2-pyrrolidin-1-ylethyl)-amide], which “BTX (Na+ channel) (% inhibition at 10 μM)” value is on record?
Answer: The value was 94%.

Question: For `COc1ccc(Cn2cc(C)c(-c3ccc(C)cc3)c2C(=O)N(C)CC(=O)OCc2ccccc2)cc1` [Example 39, {[1-(4-methoxybenzyl)-4-methyl-3-p-tolyl-1H-pyrrole-2-carbonyl]-methylamino}-acetic acid benzyl ester], which “BTX (Na+ channel) (% inhibition at 10 μM)” value is on record?
Answer: Its value is 74%.

Question: How did the “BTX (Na+ channel) (% inhibition at 10 μM)” value turn out when `COc1ccc(Cn2cc(C)c(-c3ccco3)c2C(=O)NCCC2CCCN2C)cc1` (stereo not shown) [Example 40, 3-furan-2-yl-1-(4-methoxybenzyl)-4-methyl-1H-pyrrole-2-carboxylic acid [2-(1-methylpyrrolidin-2-yl)-ethyl]-amide] was run?
Answer: Its value is 81%.

Question: For `CCOc1ccc(Br)cc1CN1CCN(C(=O)c2c(-c3ccccc3)c(C)cn2C)CC1` [Example 41, [4-(5-bromo-2-ethoxybenzyl)-piperazin-1-yl]-(1,4-dimethyl-3-phenyl-1H-pyrrol-2-yl)-methanone], which “BTX (Na+ channel) (% inhibition at 10 μM)” value is on record?
Answer: The value was 77%.

Question: How did the “BTX (Na+ channel) (% inhibition at 10 μM)” value turn out when `COc1ccc(CN2CCN(C(=O)c3c(-c4ccco4)c(C)cn3Cc3ccccc3)CC2)cc1F` [Example 42, (1-benzyl-3-furan-2-yl-4-methyl-1H-pyrrol-2-yl)-[4-(3-fluoro-4-methoxybenzyl)-piperazin-1-yl]-methanone] was run?
Answer: Its value is 88%.

Question: For `CCn1cc(C)c(-c2ccc(Cl)cc2)c1C(=O)NCCC(=O)OC(C)(C)C` [Example 43, 3-{[3-(4-chlorophenyl)-1-ethyl-4-methyl-1H-pyrrole-2-carbonyl]-amino}-propionic acid tert.-butyl ester], which “BTX (Na+ channel) (% inhibition at 10 μM)” value is on record?
Answer: Its value is 31%.

Question: With `COc1cccc(CNC(=O)c2c(-c3ccccc3)c(C)cn2Cc2ccccc2)c1` [Example 44, 1-benzyl-4-methyl-3-phenyl-1H-pyrrole-2-carboxylic acid 3-methoxybenzylamide] as the molecule, how does the “BTX (Na+ channel) (% inhibition at 10 μM)” value read?
Answer: The value was 47%.

Question: For `CCOc1ccc(Br)cc1CN1CCN(C(=O)c2c(-c3ccco3)c(C)cn2Cc2ccccc2)CC1` [Example 45, (1-benzyl-3-furan-2-yl-4-methyl-1H-pyrrol-2-yl)-[4-(5-bromo-2-ethoxybenzyl)-piperazin-1-yl]-methanone], which “BTX (Na+ channel) (% inhibition at 10 μM)” value is on record?
Answer: The value was 89%.

Question: Which “BTX (Na+ channel) (% inhibition at 10 μM)” value does the source give for `Cc1ccccc1N1CCN(C(=O)c2c(-c3ccc(Cl)cc3)c(C)cn2C)CC1` [Example 46, [3-(4-chlorophenyl)-1,4-dimethyl-1H-pyrrol-2-yl]-(4-o-tolylpiperazin-1-yl)-methanone] here?
Answer: The value was 55%.

Question: Which “BTX (Na+ channel) (% inhibition at 10 μM)” value does the source give for `CCOc1ccc(CCNC(=O)c2c(-c3ccc(OC)cc3)c(C)cn2Cc2ccc(F)cc2)cc1` [Example 47, 1-(4-fluorobenzyl)-3-(4-methoxyphenyl)-4-methyl-1H-pyrrole-2-carboxylic acid [2-(4-ethoxyphenyl)-ethyl]-amide] here?
Answer: Its value is 55%.

Question: How did the “BTX (Na+ channel) (% inhibition at 10 μM)” value turn out when `Cc1ccc(-c2c(C)cn(Cc3c(Cl)cccc3Cl)c2C(=O)N2CCC(O)CC2)cc1` [Example 48, [1-(2,6-dichlorobenzyl)-4-methyl-3-p-tolyl-1H-pyrrol-2-yl]-(4-hydroxypiperidin-1-yl)-methanone] was run?
Answer: Its value is 36%.

Question: With `COc1cc(OC)c(CN2CCN(C(=O)c3c(-c4ccc(C)cc4)c(C)cn3C)CC2)c(OC)c1` [Example 49, (1,4-dimethyl-3-p-tolyl-1H-pyrrol-2-yl)-[4-(2,4,6-trimethoxybenzyl)-piperazin-1-yl]-methanone] as the molecule, how does the “BTX (Na+ channel) (% inhibition at 10 μM)” value read?
Answer: The value was 89%.

Question: Which “BTX (Na+ channel) (% inhibition at 10 μM)” value does the source give for `Cc1cn(Cc2ccc(F)cc2)c(C(=O)NCCN2CCOCC2)c1-c1ccco1` [Example 50, 1-(4-fluorobenzyl)-3-furan-2-yl-4-methyl-1H-pyrrole-2-carboxylic acid (2-morpholin-4-ylethyl)-amide] here?
Answer: Its value is 77%.

Question: Which “BTX (Na+ channel) (% inhibition at 10 μM)” value does the source give for `Cc1cn(Cc2ccccc2)c(C(=O)NCCc2ccc(F)cc2)c1-c1ccc(Cl)cc1` [Example 51, 1-benzyl-3-(4-chlorophenyl)-4-methyl-1H-pyrrole-2-carboxylic acid [2-(4-fluorophenyl)-ethyl]-amide] here?
Answer: Its value is 43%.

Question: With `COc1ccc(-c2c(C)cn(C)c2C(=O)N2CCN(c3cc(C)ccc3C)CC2)cc1` [Example 52, [4-(2,5-dimethylphenyl)-piperazin-1-yl]-[3-(4-methoxyphenyl)-1,4-dimethyl-1H-pyrrol-2-yl]-methanone] as the molecule, how does the “BTX (Na+ channel) (% inhibition at 10 μM)” value read?
Answer: The value was 76%.

Question: Which “BTX (Na+ channel) (% inhibition at 10 μM)” value does the source give for `COc1ccc(-c2c(C)cn(C)c2C(=O)NCCCn2ccnc2)cc1` [Example 53, 3-(4-methoxyphenyl)-1,4-dimethyl-1H-pyrrole-2-carboxylic acid (3-imidazol-1-ylpropyl)-amide] here?
Answer: Its value is 44%.

Question: How did the “BTX (Na+ channel) (% inhibition at 10 μM)” value turn out when `COc1ccc(-c2c(C)cn(Cc3ccc(F)cc3)c2C(=O)NCCc2cccc(C(F)(F)F)c2)cc1` [Example 54, 1-(4-fluorobenzyl)-3-(4-methoxyphenyl)-4-methyl-1H-pyrrole-2-carboxylic acid [2-(3-trifluoromethylphenyl)-ethyl]-amide] was run?
Answer: The value was 42%.

Question: For `Cc1cnc(C(=O)N2CCN(C(=O)c3c(-c4ccc(Cl)cc4)c(C)cn3Cc3ccccc3F)CC2)cn1` [Example 55, [3-(4-chlorophenyl)-1-(2-fluorobenzyl)-4-methyl-1H-pyrrol-2-yl]-[4-(5-methylpyrazin-2-carbonyl)-piperazin-1-yl]-methanone], which “BTX (Na+ channel) (% inhibition at 10 μM)” value is on record?
Answer: The value was 44%.

Question: With `Cc1cn(C)c(C(=O)N2CCN(c3ccncc3)CC2)c1-c1ccc(Cl)cc1` [Example 57, [3-(4-chlorophenyl)-1,4-dimethyl-1H-pyrrol-2-yl]-(4-pyridin-4-ylpiperazin-1-yl)-methanone] as the molecule, how does the “BTX (Na+ channel) (% inhibition at 10 μM)” value read?
Answer: Its value is 76%.

Question: How did the “BTX (Na+ channel) (% inhibition at 10 μM)” value turn out when `Cc1cn(Cc2ccccc2F)c(C(=O)NCCCn2ccnc2)c1-c1ccc(Cl)cc1` [Example 58, 3-(4-chlorophenyl)-1-(2-fluorobenzyl)-4-methyl-1H-pyrrole-2-carboxylic acid (3-imidazol-1-ylpropyl)-amide] was run?
Answer: Its value is 93%.

Question: How did the “BTX (Na+ channel) (% inhibition at 10 μM)” value turn out when `COc1ccc(CN2CCN(C(=O)c3c(-c4ccccc4)c(C)cn3C)CC2)cc1F` [Example 59, (1,4-dimethyl-3-phenyl-1H-pyrrol-2-yl)-[4-(3-fluoro-4-methoxybenzyl)-piperazin-1-yl]-methanone] was run?
Answer: The value was 75%.

Question: How did the “BTX (Na+ channel) (% inhibition at 10 μM)” value turn out when `Cc1cn(C)c(C(=O)N2CCN(C3CCCCCC3)CC2)c1-c1ccco1` [Example 61, (4-cycloheptylpiperazin-1-yl)-(3-furan-2-yl-1,4-dimethyl-1H-pyrrol-2-yl)-methanone] was run?
Answer: Its value is 64%.

Question: How did the “BTX (Na+ channel) (% inhibition at 10 μM)” value turn out when `COc1ccc(OCCNC(=O)c2c(-c3ccccc3)c(C)cn2Cc2ccccc2)cc1` [Example 62, 1-benzyl-4-methyl-3-phenyl-1H-pyrrole-2-carboxylic acid [2-(4-methoxyphenoxy)-ethyl]-amide] was run?
Answer: Its value is 50%.

Question: Which “BTX (Na+ channel) (% inhibition at 10 μM)” value does the source give for `Cc1cn(Cc2ccc(F)cc2)c(C(=O)NCCCN(C)C)c1-c1ccco1` [Example 63, 1-(4-fluorobenzyl)-3-furan-2-yl-4-methyl-1H-pyrrole-2-carboxylic acid (3-dimethylamino-propyl)-amide] here?
Answer: Its value is 75%.

Question: For `COc1ccc(-c2c(C)cn(Cc3ccc(F)cc3)c2C(=O)N2CCCC2CN2CCCC2)cc1` (stereo not shown) [Example 64, [1-(4-fluorobenzyl)-3-(4-methoxyphenyl)-4-methyl-1H-pyrrol-2-yl]-(2-pyrrolidin-1-ylmethylpyrrolidin-1-yl)-methanone], which “BTX (Na+ channel) (% inhibition at 10 μM)” value is on record?
Answer: Its value is 96%.

Question: For `CCN(CC)CCCNC(=O)c1c(-c2ccc(Cl)cc2)c(C)cn1CC(C)C` [Example 65, 3-(4-chlorophenyl)-1-isobutyl-4-methyl-1H-pyrrole-2-carboxylic acid (3-diethylamino-propyl)-amide], which “BTX (Na+ channel) (% inhibition at 10 μM)” value is on record?
Answer: The value was 88%.

Question: How did the “BTX (Na+ channel) (% inhibition at 10 μM)” value turn out when `COc1ccc(F)c(CN2CCN(C(=O)c3c(-c4ccc(Cl)cc4)c(C)cn3C)CC2)c1` [Example 66, [3-(4-chlorophenyl)-1,4-dimethyl-1H-pyrrol-2-yl]-[4-(2-fluoro-5-methoxybenzyl)-piperazin-1-yl]-methanone] was run?
Answer: Its value is 73%.

Question: How did the “BTX (Na+ channel) (% inhibition at 10 μM)” value turn out when `CCCCn1cc(C)c(-c2ccc(C)cc2)c1C(=O)N1CCN(Cc2cc(OC)ccc2OC)CC1` [Example 68, (1-butyl-4-methyl-3-p-tolyl-1H-pyrrol-2-yl)-[4-(2,5-dimethoxybenzyl)-piperazin-1-yl]-methanone] was run?
Answer: Its value is 84%.

Question: For `CCN(CC)CCN1CCN(C(=O)c2c(-c3ccc(C)cc3)c(C)cn2Cc2ccc(C)cc2)CC1` [Example 69, [4-(2-diethylamino-ethyl)-piperazin-1-yl]-[4-methyl-1-(4-methylbenzyl)-3-p-tolyl-1H-pyrrol-2-yl]-methanone], which “BTX (Na+ channel) (% inhibition at 10 μM)” value is on record?
Answer: Its value is 91%.

Question: `COc1ccc(-c2c(C)cn(C)c2C(=O)N2CCN(c3cccc(Cl)c3)CC2)cc1` [Example 70, [4-(3-chlorophenyl)-piperazin-1-yl]-[3-(4-methoxyphenyl)-1,4-dimethyl-1H-pyrrol-2-yl]-methanone] was tested. Which “BTX (Na+ channel) (% inhibition at 10 μM)” value did it give?
Answer: Its value is 59%.

Question: `Cc1cn(Cc2ccccc2Br)c(C(=O)N2CCN(C(C)C)CC2)c1-c1ccc(Cl)cc1` [Example 71, [1-(2-bromobenzyl)-3-(4-chlorophenyl)-4-methyl-1H-pyrrol-2-yl]-(4-isopropylpiperazin-1-yl)-methanone] was tested. Which “BTX (Na+ channel) (% inhibition at 10 μM)” value did it give?
Answer: Its value is 83%.

Question: With `COc1ccc(-c2c(C)cn(Cc3ccc(F)cc3)c2C(=O)N2CCN(CCN(C)C)CC2)cc1` [Example 72, [4-(2-dimethylamino-ethyl)-piperazin-1-yl]-[1-(4-fluorobenzyl)-3-(4-methoxyphenyl)-4-methyl-1H-pyrrol-2-yl]-methanone] as the molecule, how does the “BTX (Na+ channel) (% inhibition at 10 μM)” value read?
Answer: Its value is 81%.

Question: With `COc1ccc(CNC(=O)c2c(-c3ccc(Cl)cc3)c(C)cn2Cc2ccccc2F)c(OC)c1` [Example 73, 3-(4-chlorophenyl)-1-(2-fluorobenzyl)-4-methyl-1H-pyrrole-2-carboxylic acid 2,4-dimethoxybenzylamide] as the molecule, how does the “BTX (Na+ channel) (% inhibition at 10 μM)” value read?
Answer: Its value is 49%.
